Reference: the supplement of paper PMC10307832

Key:
Assay in all cases: relative viability (nuclei count vs DMSO), 5 days (fraction); higher = more cells survive
RU-SKI 43 + Navitoclax = compound: CC[C@@H](C)CNCC(=O)N1CCC2=C([C@@H]1COC3=CC=CC(=C3)C)C=CS2 [RU-SKI 43] + CC1(C)CCC(c2ccc(Cl)cc2)=C(CN2CCN(c3ccc(C(=O)NS(=O)(=O)c4ccc(N[C@H](CCN5CCOCC5)CSc5ccccc5)c(S(=O)(=O)C(F)(F)F)c4)cc3)CC2)C1 [Navitoclax] (partner 0.5 µM)
Procedure, shortened: (§1)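 Relative viability equals treated-well nuclei counts divided by vehicle-well nuclei counts. Counts came from 4× images of lung cancer cell lines grown in 1536-well plates for 5 days after pin-tool dosing on the day after seeding. Dosing used one drug alone or a fixed anchor-drug dose plus five library-drug doses (not always all listed) in √10 steps, and values are medians of duplicate plates.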

Irinotecan + Luminespib = compound: CCc1c2c(nc3ccc(OC(=O)N4CCC(N5CCCCC5)CC4)cc13)-c1cc3c(c(=O)n1C2)COC(=O)[C@]3(O)CC [Irinotecan] + CCNC(=O)c1noc(-c2cc(C(C)C)c(O)cc2O)c1-c1ccc(CN2CCOCC2)cc1 [Luminespib] (partner 0.01 µM)
Procedure, shortened: as §1

Irinotecan + Pictilisib = compound: CCc1c2c(nc3ccc(OC(=O)N4CCC(N5CCCCC5)CC4)cc13)-c1cc3c(c(=O)n1C2)COC(=O)[C@]3(O)CC [Irinotecan] + CS(=O)(=O)N1CCN(Cc2cc3nc(-c4cccc5[nH]ncc45)nc(N4CCOCC4)c3s2)CC1 [Pictilisib] (partner 1 µM)
Procedure, shortened: as §1

Cell Line	relative viability (RU-SKI 43 + Navitoclax; first compound 0.1 µM)	relative viability (RU-SKI 43 + Navitoclax; first compound 0.3162 µM)	relative viability (RU-SKI 43 + Navitoclax; first compound 1 µM)	relative viability (RU-SKI 43 + Navitoclax; first compound 3.162 µM)	relative viability (RU-SKI 43 + Navitoclax; first compound 10 µM)	relative viability (Irinotecan + Luminespib; first compound 0.6325 µM)	relative viability (Irinotecan + Luminespib; first compound 2 µM)	relative viability (Irinotecan + Luminespib; first compound 6.325 µM)	relative viability (Irinotecan + Luminespib; first compound 20 µM)	relative viability (Irinotecan + Pictilisib; first compound 0.6325 µM)	relative viability (Irinotecan + Pictilisib; first compound 2 µM)	relative viability (Irinotecan + Pictilisib; first compound 6.325 µM)	relative viability (Irinotecan + Pictilisib; first compound 20 µM)
NCI-H2023	1.01	1.3	1.08	1.09	0.977	0.467	0.256	0.127	0.0843	0.148	0.204	0.113	0.0527
NCI-H2085	1.17	1.11	1.2	1.08	1.12	0.312	0.431	0.445	0.519	0.453	0.403	0.313	0.307
NCI-H2087	1.05	0.94	0.943	0.911	0.998	0.158	0.183	0.2	0.261	0.311	0.288	0.233	0.264
NCI-H2126	0.776	0.863	0.875	0.875	0.862	–	0.773	0.379	0.167	–	0.41	0.286	0.335
NCI-H2170	0.499	0.64	0.643	0.625	0.58	0.601	0.498	0.168	0.188	0.32	0.242	0.224	0.157
NCI-H2228	0.91	1.3	0.995	1.25	0.987	0.14	0.177	0.318	0.276	0.408	0.562	0.399	0.395
NCI-H2347	0.718	0.836	0.904	0.424	0.7	0.355	0.365	0.284	0.321	0.542	0.355	0.36	0.461
NCI-H2405	0.797	0.867	0.627	0.74	0.711	–	0.606	0.312	0.262	–	0.477	0.326	0.132
NCI-H3122	1.03	1	0.995	0.97	0.98	0.0615	0.114	0.0849	0.109	0.514	0.349	0.202	0.174
PC-3 [JPC-3]	0.74	0.748	0.783	0.792	0.779	0.642	0.431	0.334	0.36	0.309	0.535	0.315	0.344
PC-14	0.962	1.3	1.08	0.985	0.957	0.11	0.326	0.321	0.252	0.652	0.425	0.257	0.194
RERF-LC-KJ	1.07	1.29	1.09	1.21	0.9	0.692	0.567	0.461	0.224	0.516	0.422	0.455	0.418
SK-LU-1	0.789	0.817	0.841	0.831	1.03	0.202	0.241	0.244	0.236	0.444	0.447	0.322	0.247
SK-MES-1	1.31	1.55	1.33	1.25	1.12	0.818	0.521	0.324	0.234	0.336	0.319	0.254	0.257
SW 1573	0.993	0.93	0.898	1.03	0.721	0.232	0.269	0.195	0.148	0.435	0.37	0.173	0.155
